Data published in the supplement of paper PMC4862054.

Experiments:
Details in all cases: incubation time: 72 h
Hs578T [1] = assay: normalised viability (% of control), CellTiter-Blue; higher = more viable cells (100 = DMSO, 0 = benzethonium chloride kill control)
Method: (§1)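 DSRT, CellTiter-Blue viability, 72 h incubation. Signal is normalised to DMSO and benzethonium chloride controls. Value is the normalised response at dose 1.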

CAL-148 [2] = assay: as above
Method: as §1

BT-549 [3] = assay: as above
Method: as §1

CAL-85-1 [4] = assay: as above
Method: as §1

SK-BR-3 [5] = assay: as above
Method: as §1

DU-4475 = assay: as above
Method: as §1

HCC1143 = assay: as above
Method: as §1

MDA-MB-468 [6] = assay: as above
Method: as §1

CAL-120 [7] = assay: as above
Method: as §1

MFM-223 = assay: as above
Method: as §1

MDA-MB-453 = assay: as above
Method: as §1

MDA-MB-231 [8] = assay: as above
Method: as §1

HCC1937 [9] = assay: as above
Method: as §1

MDA-MB-436 = assay: as above
Method: as §1

HCC1599 = assay: as above
Method: as §1

HDQ-P1 = assay: as above
Method: as §1

Hs578T [10] = assay: drug sensitivity score (DSS), CellTiter-Glo (DSS (AUC-based score)); higher = stronger drug effect (viability inhibition or cytotoxicity); extreme values may be limits of the assay
In short: (§2)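 Plates with 384 wells held compound at 5 concentrations in 10-fold steps over a 10,000-fold range specific to each compound. Breast cancer cell lines were added in 20 µl suspension and incubated 72 h, then read for CellTox Green and CellTiter-Glo signals, with each plate normalised to 0.1 % DMSO and a positive kill control. The drug sensitivity score is based on the area under the fitted dose-response curve.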

CAL-148 [11] = assay: as above
In short: as §2

BT-549 [12] = assay: as above
In short: as §2

CAL-85-1 [13] = assay: as above
In short: as §2

SK-BR-3 [14] = assay: as above
In short: as §2

BT-474 = assay: as above
In short: as §2

CAL-51 = assay: as above
In short: as §2

MDA-MB-468 [15] = assay: as above
In short: as §2

CAL-120 [16] = assay: as above
In short: as §2

MDA-MB-231 [17] = assay: as above
In short: as §2

HCC1937 [18] = assay: as above
In short: as §2

Compound `CCCS(=O)(=O)Nc1ccc(F)c(C(=O)c2c[nH]c3ncc(-c4ccc(Cl)cc4)cc23)c1F` [Vemurafenib] has a normalised viability (Hs578T [1]; 1 nM) of 112%, a normalised viability (CAL-148 [2]; 1 nM) of 98.4% and a normalised viability (BT-549 [3]; 1 nM) of 114%. It also gave a normalised viability (CAL-85-1 [4]; 1 nM) of 91.6%, a normalised viability (SK-BR-3 [5]; 1 nM) of 92.2% and a normalised viability (DU-4475; 1 nM) of 88%. For the same compound, the normalised viability (HCC1143; 1 nM) was 93.8%, the normalised viability (MDA-MB-468 [6]; 1 nM) was 110% and the normalised viability (CAL-120 [7]; 1 nM) was 95.3%. The normalised viability (MFM-223; 1 nM) was 90.7%, the normalised viability (MDA-MB-453; 1 nM) was 89.8% and the normalised viability (MDA-MB-231 [8]; 1 nM) was 113%. It also gave a normalised viability (HCC1937 [9]; 1 nM) of 119%, a normalised viability (MDA-MB-436; 1 nM) of 91.1% and a normalised viability (HCC1599; 1 nM) of 83.4%. For the same compound, the normalised viability (HDQ-P1; 1 nM) was 96.3%, the drug sensitivity score (Hs578T [10]) was 0 and the drug sensitivity score (CAL-148 [11]) was 0. It also gave a drug sensitivity score (BT-549 [12]) of 0, a drug sensitivity score (CAL-85-1 [13]) of 0.555 and a drug sensitivity score (SK-BR-3 [14]) of 0. For the same compound, the drug sensitivity score (BT-474) was 0.633, the drug sensitivity score (CAL-51) was 2.75 and the drug sensitivity score (MDA-MB-468 [15]) was 0. For the same compound, the drug sensitivity score (CAL-120 [16]) was 0, the drug sensitivity score (MDA-MB-231 [17]) was 0 and the drug sensitivity score (HCC1937 [18]) was 0.
For `CCN(CC)CCCC(C)Nc1c2ccc(Cl)cc2nc2ccc(OC)cc12` (configuration not stated) [Mepacrine], the normalised viability (Hs578T [1]; 0.099 nM) was 113%, the normalised viability (Hs578T [1]; 1 nM) was 127% and the normalised viability (CAL-148 [2]; 0.099 nM) was 115%. It also gave a normalised viability (CAL-148 [2]; 1 nM) of 96.9%, a normalised viability (BT-549 [3]; 0.099 nM) of 96.1% and a normalised viability (BT-549 [3]; 1 nM) of 86.5%. It also gave a normalised viability (CAL-85-1 [4]; 0.099 nM) of 101%, a normalised viability (CAL-85-1 [4]; 1 nM) of 94.5% and a normalised viability (SK-BR-3 [5]; 0.099 nM) of 100%. The normalised viability (SK-BR-3 [5]; 1 nM) was 101%, the normalised viability (DU-4475; 0.099 nM) was 93.5% and the normalised viability (DU-4475; 1 nM) was 111%. For the same compound, the normalised viability (HCC1143; 0.099 nM) was 108%, the normalised viability (HCC1143; 1 nM) was 98.1% and the normalised viability (MDA-MB-468 [6]; 0.099 nM) was 108%. For the same compound, the normalised viability (MDA-MB-468 [6]; 1 nM) was 101%, the normalised viability (CAL-120 [7]; 0.099 nM) was 114% and the normalised viability (CAL-120 [7]; 1 nM) was 97.7%. For the same compound, the normalised viability (MFM-223; 0.099 nM) was 103%, the normalised viability (MFM-223; 1 nM) was 96% and the normalised viability (MDA-MB-453; 0.099 nM) was 98%. The normalised viability (MDA-MB-453; 1 nM) was 106%, the normalised viability (MDA-MB-231 [8]; 0.099 nM) was 95.4% and the normalised viability (MDA-MB-231 [8]; 1 nM) was 101%. It also gave a normalised viability (HCC1937 [9]; 0.099 nM) of 94.7%, a normalised viability (HCC1937 [9]; 1 nM) of 86% and a normalised viability (MDA-MB-436; 0.099 nM) of 112%. It also gave a normalised viability (MDA-MB-436; 1 nM) of 101%, a normalised viability (HCC1599; 0.099 nM) of 102% and a normalised viability (HCC1599; 1 nM) of 96.2%. It also gave a normalised viability (HDQ-P1; 0.099 nM) of 115%, a normalised viability (HDQ-P1; 1 nM) of 108% and a drug sensitivity score (Hs578T [10]) of 0. For the same compound, the drug sensitivity score (CAL-148 [11]) was 0, the drug sensitivity score (BT-549 [12]) was 0 and the drug sensitivity score (CAL-85-1 [13]) was 0. For the same compound, the drug sensitivity score (SK-BR-3 [14]) was 0, the drug sensitivity score (BT-474) was 0 and the drug sensitivity score (CAL-51) was 0. For the same compound, the drug sensitivity score (MDA-MB-468 [15]) was 0, the drug sensitivity score (CAL-120 [16]) was 0 and the drug sensitivity score (MDA-MB-231 [17]) was 0. It also gave a drug sensitivity score (HCC1937 [18]) of 0.
`O=C(O)C1(C(=O)O)CCC1.[NH2-].[NH2-].[Pt+2]` [Carboplatin] showed a normalised viability (Hs578T [1]; 1 nM) of 125%, a normalised viability (CAL-148 [2]; 1 nM) of 96.9% and a normalised viability (BT-549 [3]; 1 nM) of 95.2%. The normalised viability (CAL-85-1 [4]; 1 nM) was 90.2%, the normalised viability (SK-BR-3 [5]; 1 nM) was 105% and the normalised viability (DU-4475; 1 nM) was 104%. The normalised viability (HCC1143; 1 nM) was 90.7%, the normalised viability (MDA-MB-468 [6]; 1 nM) was 100% and the normalised viability (CAL-120 [7]; 1 nM) was 84.1%. It also gave a normalised viability (MFM-223; 1 nM) of 96.6%, a normalised viability (MDA-MB-453; 1 nM) of 98.7% and a normalised viability (MDA-MB-231 [8]; 1 nM) of 105%. The normalised viability (HCC1937 [9]; 1 nM) was 80.9%, the normalised viability (MDA-MB-436; 1 nM) was 102% and the normalised viability (HCC1599; 1 nM) was 91.3%. For the same compound, the normalised viability (HDQ-P1; 1 nM) was 109%, the drug sensitivity score (Hs578T [10]) was 0 and the drug sensitivity score (CAL-148 [11]) was 0. The drug sensitivity score (BT-549 [12]) was 0, the drug sensitivity score (CAL-85-1 [13]) was 0 and the drug sensitivity score (SK-BR-3 [14]) was 0. For the same compound, the drug sensitivity score (BT-474) was 0, the drug sensitivity score (CAL-51) was 0 and the drug sensitivity score (MDA-MB-468 [15]) was 0. For the same compound, the drug sensitivity score (CAL-120 [16]) was 0, the drug sensitivity score (MDA-MB-231 [17]) was 0 and the drug sensitivity score (HCC1937 [18]) was 0.
